Test results taken from US9526721B2, “Tetrahydroprotoberbine compounds and uses thereof in the treatment of neurological, psychiatric and neurodegenerative diseases” (priority 2012, dated 2016).
“Also recorded” adds a separate entry of the source.

What was measured:
D3 = molecular target: T1, D3 (Homo sapiens, UniProt P35462); test: Receptor binding, dopamine D3; settings: receptor expressed in CHO cells
T1 construct: host or cells: CHO cells
Description: (§1) All receptors tested were heterologously expressed CHO cells and IC50 values were determined by a non-linear, least squares regression analysis using MathIQ (ID Business Solution Ltd, UK). Ki was calculated using the equation of Cheng and Prusoff (1973, Biochem. Pharmacol 22:23099-3108) derived from the observed IC50 of the tested compound, the concentration of radioligand employed in the assay, and the historical values for the Kd of the ligand (obtained experimentally at MDS Pharma Services).
as §1, with “receptors” for “receptors tested”, “UK). K1” for “UK). Ki”, “calculated (Y.” for “calculated using the equation of”, “Cheng &” for “Cheng and”, “Prusoff 1973)” for “Prusoff (1973, Biochem. Pharmacol 22:23099-3108) derived”

D4.2 = molecular target: T2, D4.2 (Homo sapiens, UniProt P21917, DEL265-296); test: Receptor binding, dopamine D4.2; settings: CHO cells
T2 construct: host or cells: CHO cells
T2 sequence (P21917 with tags, fused parts or gaps DEL265-296): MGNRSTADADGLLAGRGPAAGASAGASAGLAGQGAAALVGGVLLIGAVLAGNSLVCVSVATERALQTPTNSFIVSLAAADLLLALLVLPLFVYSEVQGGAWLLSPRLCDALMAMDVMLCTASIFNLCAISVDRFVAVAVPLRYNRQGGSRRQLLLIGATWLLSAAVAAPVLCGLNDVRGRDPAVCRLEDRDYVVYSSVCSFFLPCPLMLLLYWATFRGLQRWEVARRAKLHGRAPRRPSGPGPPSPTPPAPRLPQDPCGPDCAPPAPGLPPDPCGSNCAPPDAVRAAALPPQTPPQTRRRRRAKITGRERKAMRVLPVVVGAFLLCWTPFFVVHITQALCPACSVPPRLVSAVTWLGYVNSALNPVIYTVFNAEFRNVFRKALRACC
Description: as §1

D5 = molecular target: T3, D5 (Homo sapiens, UniProt P21918); test: Receptor binding, dopamine D5; settings: receptor expressed in CHO cells
T3 construct: host or cells: CHO cells
T3 sequence (P21918 whole entry): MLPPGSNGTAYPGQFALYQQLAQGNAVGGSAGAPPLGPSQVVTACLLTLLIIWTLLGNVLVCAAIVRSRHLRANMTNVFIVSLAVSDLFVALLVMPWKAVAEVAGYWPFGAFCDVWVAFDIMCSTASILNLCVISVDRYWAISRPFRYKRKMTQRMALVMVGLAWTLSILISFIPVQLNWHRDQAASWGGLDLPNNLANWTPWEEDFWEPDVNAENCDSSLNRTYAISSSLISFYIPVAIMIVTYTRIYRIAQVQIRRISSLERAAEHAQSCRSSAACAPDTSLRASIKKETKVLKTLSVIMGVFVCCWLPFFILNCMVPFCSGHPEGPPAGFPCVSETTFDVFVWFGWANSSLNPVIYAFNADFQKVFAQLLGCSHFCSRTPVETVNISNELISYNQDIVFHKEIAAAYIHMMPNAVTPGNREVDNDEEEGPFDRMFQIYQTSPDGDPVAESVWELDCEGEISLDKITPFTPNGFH
Description: All receptors tested were heterologously expressed CHO cells and IC50 values were determined by a non-linear, least squares regression analysis using MathIQ (ID Business Solution Ltd, UK).
All receptors were heterologously expressed CHO cells and IC50 values were determined by a non-linear, least squares regression analysis using MathIQ (ID Business Solution Ltd, UK).

Dopamine D1 receptors = molecular target: T4, Dopamine D1 receptors (Homo sapiens, UniProt P21728); test: Dopamine D1 receptor Adenylyl Cyclase Cellular Assay (cAMP, HTRF); type: cell-based; settings: for IC50: D1 antagonism, cAMP, CHO cells, read-out: IC50 of antagonistic response; for % Response Agonist: increase in cAMP relative to dopamine response; for % Response Agonist / % Response Antagonist: D1 in CHO cells; for % Response Antagonist: inhibition of dopamine-induced cAMP increase
T4 construct: host or cells: CHO cells
T4 sequence (P21728 whole entry): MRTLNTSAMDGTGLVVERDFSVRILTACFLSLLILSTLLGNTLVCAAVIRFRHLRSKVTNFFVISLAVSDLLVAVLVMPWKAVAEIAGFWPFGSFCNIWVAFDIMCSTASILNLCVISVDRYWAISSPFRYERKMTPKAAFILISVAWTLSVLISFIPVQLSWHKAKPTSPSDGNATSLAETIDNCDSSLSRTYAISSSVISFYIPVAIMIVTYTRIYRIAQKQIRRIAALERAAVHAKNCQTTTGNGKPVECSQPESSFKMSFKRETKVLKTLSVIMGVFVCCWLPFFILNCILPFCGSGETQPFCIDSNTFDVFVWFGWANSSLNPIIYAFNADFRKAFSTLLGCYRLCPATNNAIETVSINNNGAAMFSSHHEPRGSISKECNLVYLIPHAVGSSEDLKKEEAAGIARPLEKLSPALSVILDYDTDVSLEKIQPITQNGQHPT
Source text: Methods employed in this Example were adapted from Liu et al (1992, Mol Endocrinol 92:1815-1824) and Zhou et al (1990, Nature 347:76-79) to maximize reliability and reproducibility. Reference standards were run as an integral part of each assay to ensure the validity of the results obtained. […] (+)-Butaclamol was used as a positive control for the assay assessing antagonism. Homogeneous fluorescence methodology HTRF homogeneous fluorescence quantitation methodology was used to measure the levels of cAMP. The criterion for significant agonist activity is ≧50% increase in cAMP relative to dopamine response. The criteria for significant antagonist activity ≧50% inhibition of dopamine-induced cAMP increase.

rats [1] = test: Latent inhibition; type: in vivo, rat; settings: treatment before each pre-exposure; 1.0 mg/kg d-AMPH before conditioning
Description: Sensitization: Animals were removed from the colony and taken to a holding room where they received either IP d-AMPH or saline every Monday, Wednesday, and Friday. Doses started at 1 mg/kg and increased 1 mg/kg each week over 5 weeks to 5 mg/kg. 25 days after the induction phase, behavioral sensitization was assessed over 3 days in locomotor chambers (plexiglass box, 40 cm×40 cm×40 cm) where speed and distance traveled were recorded using Noldus Ethovision XT (Noldus, Leesburg, Va.). The first day consisted of a 2 hr acclimation session, and prior to counter balanced injections of either 0.5 mg/kg d-AMPH or saline on days 2 and 3 animals were acclimated for 1 hr. Experiments were run in two separate cohorts of 30 animals to minimize the time between testing sensitization and LI.
Latent Inhibition: LI tests were performed in rats treated with 1.0 mg/kg acute d-AMPH, sensitized rats, and drug-naive rats. LI testing began 5 days post-challenge of the escalating dose regime. Animals in both conditions (chronic saline or sensitized) were randomly assigned to either non-pre-exposed (NPE) or pre-exposed (PE) groups. Testing took place over 3 consecutive days. […] Animals in the PE group received 50 presentations of the CS (10 sec duration) per day at a variable interval for the first two days. Animals in the NPE group were placed in the chamber for an equal time as the PE animals. Conditioning (COND) consisted of 100 CS-US pairings. Latency to cross into the other compartment and the number of total beam breaks were recorded. Drug-naïve animals receiving acute 1.0 mg/kg AMPH were injected IP 45 min before the COND trial.
The effects of the two individual enantiomers of govadine on latent inhibition (LI) were also tested as described in Example 12.

[2] = system: midbrain dopamine (DA) neurons; test: Firing of midbrain dopamine neurons in slices (cell-attached recording); type: cell-based, Sprague Dawley rats; settings: co-application with Quinpirole (500 nM)
Description: Horizontal midbrain slices (220 μm) were prepared from male Sprague Dawley rats (3-4 weeks old). Cell-attached voltage-clamp recordings were used to examine tonic firing rate of DA neurons at 31-32° C. using patch pipette and bathing solutions consisting of physiological saline. Putative DA neurons were identified by spontaneous pacemaker firing (1-3 Hz) with broad APs (≧2.0 ms). Identified cells not responsive to Quinpirole (500 nM), a D2 DA receptor agonist, were excluded from further recording. Cells were also filled with biocytin or Alexa for posthoc-identification using TH immunostaining.

rats [3] = test: Conditioned avoidance responding (CAR); settings: SC, 100 CS-US pairings
Description: Conditioned avoidance responding (CAR) was performed in a two-way avoidance procedure with drug naive rats in four shuttle boxes (Med Associates, Vt., USA) each consisting of two compartments separated by an open door. Each compartment contained a wall-mounted speaker, house light and 5 photocells to detect the location of the animal. All experimental protocols and data acquisition were controlled by custom programs written in MED-PC.
Before training, each animal received two acclimation sessions lasting 30 min with only the house light illuminated. […] Pairings of the conditioned stimulus (CS) (white noise, ˜60 dB) and the unconditioned stimulus (US) (footshock, 0.75 mA) were presented at random intervals with a mean of 60 sec. The CS was presented for 10 sec. During this time, if the animal moved to the opposite side of the box, the white noise was silenced, no foot shock delivered, and an avoidance response was scored. Upon termination of the 10 sec tone, if the animal had not moved to the opposite side of the box, a foot-shock was administered for 2 sec. […] Failure to avoid or escape constituted a response failure and was scored accordingly. After reaching a criterion of 90% avoidances for a block of 20 trials, usually achieved with ˜100 CS-US pairings, each animal advanced to the drug-testing phase. Animals not meeting the criterion by 120 pairings were excluded from the study.
Pairings were presented just as during training and were scored in the same fashion. The test trial consisted of 100 CS-US pairings.

T1 sequence (P35462 whole entry): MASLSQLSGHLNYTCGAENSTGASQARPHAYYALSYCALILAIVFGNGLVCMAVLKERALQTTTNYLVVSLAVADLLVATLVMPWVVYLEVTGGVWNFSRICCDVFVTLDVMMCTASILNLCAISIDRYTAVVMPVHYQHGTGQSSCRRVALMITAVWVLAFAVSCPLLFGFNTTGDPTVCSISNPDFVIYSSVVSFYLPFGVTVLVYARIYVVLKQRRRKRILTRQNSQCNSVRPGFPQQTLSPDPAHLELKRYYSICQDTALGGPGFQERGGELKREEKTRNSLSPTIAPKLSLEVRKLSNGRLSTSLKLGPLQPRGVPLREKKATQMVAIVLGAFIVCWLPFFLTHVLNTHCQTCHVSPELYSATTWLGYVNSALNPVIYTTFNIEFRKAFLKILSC

Compound	Ki (D3) [nM]	inhibition at 10 µM (D4.2) [%]	Ki (D5) [nM]	IC50 (Dopamine D1 receptors) [nM]	% Response Agonist (Dopamine D1 receptors) [%]	% Response Antagonist (Dopamine D1 receptors) [%]	latent inhibition in acute d-AMPH-treated animals (rats [1])	antagonism of D2 autoreceptor-mediated decrease in tonic firing [2]	suppression of conditioned avoidance responding (avoidances) (rats [3])
COc1cc2c(cc1O)CN1CCc3cc(OC)c(O)cc3[C@H]1C2 [d-govadine]	606	20	13.4	2380	2	82	restored LI		
COc1cc2c(cc1O)CN1CCc3cc(OC)c(O)cc3[C@@H]1C2 [l-govadine]	548	21		16.6	2	87	restored LI	antagonized	Suppression of conditioned avoidance responding was observed; also recorded: suppresses CAR
